Data on two compounds can be found in patent US9562268B2, “Risk assessment for adverse drug reactions” (Academia Sinica, priority 2003, dated 2017).

Read-outs that look alike come from different tables or passages of the source.

In one data set the test system is HLA-DRB1*1202. Nature of the data set: Equivalent genetic marker incidence in patients with ADRs: HLA-DRB1*1202. Format: in vivo, human. The settings on record: SJS/TEN patients who received the drug. The procedure:
(§1) A total of 112 SJS/TEN patients were recruited either from Chang Gung Memorial Hospital or from several other medical centers throughout Taiwan. […] Drug taking history including dosage and duration, and the phenotypes of adverse drug reactions were recorded. The diagnostic criteria of clinical morphology were defined according to Roujeau (Roujeau J C, 1994). We define SJS as skin detachment of less than 10% of body-surface area, overlap SJS-TEN as skin detachment of 10-30%, and TEN as greater than 30%. SJS, overlap SJS-TEN and TEN are collectively referred to as SJS/TEN.
(§2) 73 tegretol-tolerant patients were included as controls. Volunteers from the general population of Taiwanese (n=94; age range: 20 to 80 years) were also recruited. The study was approved by the institutional review board, and informed consent was obtained.
(§3) Reagents for reverse lineblot sequence-specific oligonucleotide (SSO) were purchased from DYNAL Biotech Ltd. (Bromborough, UK) and used for HLA genotyping. […] The presence of biotinylated PCR product bound to a specific probe is detected using streptavidin-horseradish peroxidase (HRP) and a chromogenic, soluble substrate to produce a blue “line” at the position of the positive probe. […]

Another data set deals with HLA-A*1101. Description: Equivalent genetic marker incidence in patients with ADRs: HLA-A*1101. Format: in vivo, human. The settings on record: SJS/TEN patients who received the drug. The procedure:
as §1, §2, §3

A further data set relates to HLA-B*4601. The procedure: as §1, §2
(§4) Reagents for reverse lineblot sequence-specific oligonucleotide (SSO) were purchased from DYNAL Biotech Ltd. (Bromborough, UK) and used for HLA genotyping. Briefly, a PCR product was generated using biotinylated primer pairs for the second and the third exons of the HLA class I or class II loci, and then hybridized to a lineblot of SSO of probes immobilized on a nylon membrane. The presence of biotinylated PCR product bound to a specific probe is detected using streptavidin-horseradish peroxidase (HRP) and a chromogenic, soluble substrate to produce a blue “line” at the position of the positive probe. The probe reactivity pattern was interpreted by the genotyping software Dynal RELI™ SSO (DYNAL Biotech Ltd.; Bromborough, UK). Potential ambiguities were further resolved by sequence-based typing and DNA sequencing performed according to the IHWG Technical Manual (International Histocompatibility Working Group).
Allele frequencies in the different groups were compared by the Chi-square method with Yates correction by constructing 2×2 tables. P values were corrected for comparisons of multiple HLA alleles (Pc) by multiplying the raw P values by the observed number of HLA alleles present within the loci. Odds ratios were calculated with Haldane's modification, which adds 0.5 to all cells to accommodate possible zero counts.

For a further data set, the system named is HLA-Cw*0801. The settings on record: human, in vivo. The procedure: as §1, §2, §4
The test system of another data set is HLA-Cw*0806. The settings on record: human, in vivo. The procedure:
as §1, §2, §4

The next data set concerns HLA-Cw*0302. The settings on record: human, in vivo. The procedure:
as §1, §2, §4

Setting [1] is: patients with milder cutaneous reactions to the drug (n = 16).

As for `NC(=O)N1c2ccccc2C=Cc2ccccc21` [carbamazepine], in the data set on HLA-DRB1*1202, the “HLA-DRB1*1202 frequency” value was 83.3% and the “Number of patients carrying HLA-DRB1*1202” value was 35. Further, in the data set on HLA-A*1101, the “HLA-A*1101 frequency” value stood at 73.8% and the “Number of patients carrying HLA-A*1101” value was determined as 31. Besides, in the data set on HLA-B*4601 (drug-tolerant group (n = 73)), the “HLA-B*4601 frequency” value was found to be 26% and the “Number of patients carrying HLA-B*4601” value is given as 19. Besides, in the data set on HLA-B*4601 (setting [1]), the “HLA-B*4601 frequency” value was 62.5% and the “Number of patients carrying HLA-B*4601” value is on record as 10. Further, in the data set with HLA-B*4601 (versus drug-tolerant group), the “odds ratio, B*4601 associated drug-induced milder cutaneous ADRs” value was found to be 4.73.
As to `Oc1ncnc2[nH]ncc12` [allopurinol], in the data set with HLA-Cw*0801, the “HLA-Cw*0801 frequency” value came out at 11.7% and the “Number of patients carrying HLA-Cw*0801” value is reported as 2. Besides, in the data set with HLA-Cw*0806, the “HLA-Cw*0806 frequency” value is 0(0%) and the “Number of patients carrying HLA-Cw*0806” value is listed as 0(0%). Also, in the data set on HLA-Cw*0302, the “HLA-Cw*0302 frequency” value was determined as 82% and the “Number of patients carrying HLA-Cw*0302” value was determined as 14.
